PubChem BioAssay (NCI)
Values joined by “and” are separate entries in the source; they are usually repeats but may differ in a detail not shown here. Identical values can stand only once.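 Assay format: 96-well plates, 48-hour exposure. GI50 = concentration required for 50% inhibition of growth. Definition used: TGI = concentration required for complete inhibition of growth.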

What was measured:
Assay in all cases: DTP human tumour cell line panel, 48 h
OVCAR-5 ovarian = system: OVCAR-5 ovarian
OVCAR-3 ovarian = system: OVCAR-3 ovarian
SW-620 colon = system: SW-620 colon
HT29 colon = system: HT29 colon
SK-MEL-28 melanoma = system: SK-MEL-28 melanoma
RXF 393 renal = system: RXF 393 renal
NCI-H226 lung = system: NCI-H226 lung
SF-295 CNS = system: SF-295 CNS
NCI/ADR-RES ovarian = system: NCI/ADR-RES ovarian
SF-268 CNS = system: SF-268 CNS

Row | Structure (SMILES) | GI50 (OVCAR-5 ovarian) | TGI (OVCAR-5 ovarian) | GI50 (OVCAR-3 ovarian) | TGI (OVCAR-3 ovarian) | GI50 (SW-620 colon) | TGI (SW-620 colon) | GI50 (HT29 colon) | TGI (HT29 colon) | GI50 (SK-MEL-28 melanoma) | TGI (SK-MEL-28 melanoma) | GI50 (RXF 393 renal) | TGI (RXF 393 renal) | GI50 (NCI-H226 lung) | TGI (NCI-H226 lung) | GI50 (SF-295 CNS) | TGI (SF-295 CNS) | GI50 (NCI/ADR-RES ovarian) | TGI (NCI/ADR-RES ovarian) | GI50 (SF-268 CNS) | TGI (SF-268 CNS)
1 | CCCCCCCCCCN=C(c1ccc(N(C)C)cc1)c1ccc(N(C)C)cc1 | 7.65 µM | > 100 µM | 0.428 µM | > 24.9 µM | 0.425 µM | > 100 µM | 0.351 µM | 18.5 µM | 7.39 µM | > 100 µM | 1.66 µM | 9.87 µM | 10.8 µM | > 81.3 µM | 0.63 µM | 13.7 µM | 0.406 µM | 42.4 µM | 3.4 µM | 67.9 µM
2 | Cc1ccc2c(c1)Sc1ccc(N=NN(C)C)cc1N2C | – | > 100 µM | – | > 100 µM | – | > 100 µM | – | > 100 µM | – | > 100 µM | – | > 100 µM | – | > 100 µM | – | > 100 µM | – | > 100 µM | – | > 100 µM
3 | O=S1(=O)NCCCN1CCNc1nccc(-c2c(-c3cccc(O)c3)nc3sccn23)n1 | 49.8 µM | > 100 µM | 19.4 µM | > 100 µM | 33 µM | > 100 µM | 7.65 µM | > 100 µM | 0.245 µM | > 100 µM | 5.17 µM | 38.4 µM | 18.9 µM | 73.9 µM | 51.9 µM | > 100 µM | > 100 µM | > 100 µM | 24.4 µM | > 100 µM
4 | O=S(=O)(CCOCc1ccc(-c2ccc3ncnc(Nc4ccc(OCc5cccc(F)c5)c(Cl)c4)c3c2)o1)c1ccccc1 | > 25 µM | > 25 µM | > 25 µM | > 25 µM | > 25 µM | > 25 µM | > 25 µM | > 25 µM | > 25 µM | > 25 µM | > 25 µM | > 25 µM | > 25 µM | > 25 µM | > 25 µM | > 25 µM | > 25 µM | > 25 µM | > 25 µM | > 25 µM
5 | Cn1cc(-c2csc(-c3cn(C)c4ccccc34)n2)c2cnccc21 | 1.77 µM | 3.25 µM | 2.16 µM | 4.13 µM | 1.85 µM | 3.63 µM | 1.98 µM | 3.71 µM | 1.77 µM | 3.21 µM | 1.7 µM | 3.28 µM | – | – | 1.63 µM | 3.07 µM | 1.83 µM | 4.32 µM | 1.92 µM | 3.92 µM
6 | CC1CCCc2c1nn(C(=O)/C=C(\N)c1ccccc1)c2N (centres undefined) | 31 µM | > 100 µM | 5.61 µM | 32.6 µM | 6.71 µM | > 100 µM | 16.8 µM | > 100 µM | 17.9 µM | > 100 µM | 31.3 µM | > 100 µM | 16.5 µM | > 100 µM | 30.6 µM | > 100 µM | 6.03 µM | 39.4 µM | 9.61 µM | > 100 µM
7 | O=C1C(Cl)=C(Nc2ccccc2)C(=O)c2ccccc21 | 1.94 µM | 3.65 µM | 1.67 µM | 3.15 µM | 1.09 µM | 2.92 µM | 2.27 µM | 4.72 µM | 1.97 µM | 3.53 µM | 1.6 µM | 2.99 µM | 2.18 µM | 6.3 µM | 10.6 µM | 24.1 µM | 2.11 µM | 4.89 µM | 1.69 µM | 3.27 µM
8 | OC(CN1CC1)C(O)CN1CC1 (centres undefined) | > 50 µg/mL | > 50 µg/mL | > 50 µg/mL | > 50 µg/mL | > 50 µg/mL | > 50 µg/mL | > 50 µg/mL | > 50 µg/mL | > 50 µg/mL | > 50 µg/mL | > 50 µg/mL | > 50 µg/mL | > 50 µg/mL | > 50 µg/mL | > 50 µg/mL | > 50 µg/mL | > 50 µg/mL | > 50 µg/mL | > 50 µg/mL | > 50 µg/mL
9 | Cn1c([N+](=O)[O-])cnc1/C=C1\Oc2cc(Cl)ccc2C1=O | 2.47 µM | 7.84 µM | 0.441 µM | 2.31 µM | 0.159 µM | 1.06 µM | 0.203 µM | 0.657 µM | 0.721 µM | 3.82 µM | 0.762 µM | 2.37 µM | 2.05 µM | 8.41 µM | 2.72 µM | > 42.7 µM | 0.884 µM | > 100 µM | 0.371 µM | 2.85 µM
10 | Cc1nc(Nc2n[nH]c3c2CN(C(=O)N[C@H](CN(C)C)c2ccccc2)C3(C)C)c2sccc2n1 | 0.0686 µM and 0.322 µM | > 8.88 µM and 25.2 µM | 0.0255 µM and 0.0584 µM | 1.57 µM and 7.36 µM | 0.0244 µM and 0.0346 µM | > 38.7 µM | 0.0238 µM and 0.0313 µM | 2.75 µM and 5.59 µM | 0.013 µM and < 0.01 µM | 1.12 µM and 4.31 µM | 0.143 µM and 0.751 µM | 1.89 µM and 2.53 µM | 0.341 µM and 0.302 µM | > 5.18 µM and 5.01 µM | 0.078 µM and 0.066 µM | > 10 µM and 8.62 µM | > 3.65 µM and 17.5 µM | > 100 µM | 0.177 µM and 0.427 µM | > 4.61 µM and 5.23 µM
11 | CC(=O)NNc1nc(C)c(C(=O)NNC(=O)C(=O)Nc2nc3ccc([N+](=O)[O-])cc3s2)s1 | – | > 100 µM | – | 76.4 µM | – | > 100 µM | – | > 100 µM | – | > 100 µM | – | > 95.6 µM | – | > 100 µM | – | > 100 µM | – | > 100 µM | – | > 100 µM
12 | COc1ccc(-c2nnc(N3CCN(C(=O)CN4CCN(c5ccc(OC)cc5)CC4)CC3)nc2-c2ccc(OC)cc2)cc1 | 27.6 µM | 53.1 µM | 2.1 µM | 4 µM | – | – | 3.39 µM | 10.8 µM | 13.4 µM | 34.6 µM | 5.38 µM | 38.8 µM | 5.53 µM | 34.5 µM | 20.3 µM | > 72.1 µM | 9.89 µM | 31.9 µM | 3.62 µM | 14.2 µM
13 | O=C1c2cccnc2-c2nc(-c3ccncc3)cc3c2c1nc1ccccc13 | 31.2 µM | > 100 µM | 7.51 µM | 20 µM | 12.7 µM | 41.6 µM | 17.9 µM | 31.7 µM | > 100 µM | > 100 µM | 15.6 µM | 66.7 µM | 10.9 µM | 22.8 µM | 15.1 µM | 28.4 µM | 9.63 µM | 24.8 µM | 15.1 µM | 34.5 µM
14 | C[C@H]1[C@H](C)CC[C@]2(C(=O)NCCNCCN)CC[C@]3(C)C(=CC[C@@H]4[C@@]5(C)CCC(=O)C(C)(C)[C@@H]5CC[C@]43C)[C@H]12 | 2.9 µM | 11.3 µM | 1.8 µM | 3.3 µM | 1.84 µM | 3.47 µM | – | – | 1.65 µM | 3.02 µM | – | – | 14.8 µM | 45.5 µM | – | – | 5.16 µM | 20 µM | – | –
15 | CCC1=C[C@@H]2CN(C1)Cc1c([nH]c3ccccc13)[C@@](C(=O)OC)(c1cc3c(cc1OC)N(C)[C@H]1[C@@](O)(C(=O)OC)[C@H](OC(C)=O)[C@]4(CC)[C@@H]5C[C@@H]5CN5CC[C@]31[C@@H]54)C2 | – | 16.9 µM and 73.9 µM | – | – | < 0.005 µM | 9.16 µM and 21 µM | < 0.005 µM | 0.8 µM and 1.06 µM | < 0.005 µM | 7.96 µM | 0.0105 µM | 11.1 µM | 0.0191 µM | 6.57 µM | < 0.005 µM | < 0.005 µM and 0.011 µM | 0.111 µM and 0.662 µM | 2.82 µM and 22.6 µM | < 0.005 µM and 0.0151 µM | 8.94 µM and 12.8 µM
16 | CCOC1Oc2ccccc2-c2oc(=O)c(Sc3ccc(C)cc3)cc21 (centres undefined) | > 100 µM | > 100 µM | 18.1 µM | > 100 µM | 37.5 µM | > 100 µM | 32 µM | > 100 µM | 84.2 µM | > 100 µM | – | – | 36.8 µM | > 100 µM | 19.2 µM | > 100 µM | 35 µM | > 100 µM | 27.9 µM | 75.8 µM
17 | c1ccc2nc3c(cc4ccccn43)nc2c1 | > 100 µM | > 100 µM | > 100 µM | > 100 µM | > 100 µM | > 100 µM | > 100 µM | > 100 µM | > 100 µM | > 100 µM | 30.1 µM | > 100 µM | – | – | 49.8 µM | > 100 µM | > 100 µM | > 100 µM | > 100 µM | > 100 µM
18 | C=C(CN1CCc2ccccc2C1)c1ccc(C(=O)Nc2ccccc2N)cc1 | 2.64 µM | > 20.2 µM | 1.38 µM | 6.76 µM | 1.87 µM | > 42.8 µM | – | – | 0.389 µM | 6.53 µM | 1.37 µM | 4.76 µM | 1.49 µM | 9.2 µM | 1.27 µM | 3.53 µM | 1.11 µM | > 9.95 µM | 1.87 µM | 9.74 µM
19 | OC(c1ccc(Br)cc1)(c1cccs1)C1CC1 (centres undefined) | – | 70.5 µM | – | 35.9 µM | – | 87.5 µM | – | 68 µM | – | 51.3 µM | – | 39.1 µM | – | – | – | 44.6 µM | – | 60.5 µM | – | 45.4 µM
20 | Cn1c(/C(C#N)=C/c2ccc3ccccc3c2)cc2ccccc21 | 0.411 µM | > 100 µM | – | – | 0.0935 µM | > 100 µM | 0.353 µM | > 100 µM | 16.6 µM | > 100 µM | 0.0507 µM | 0.474 µM | 0.662 µM | > 100 µM | 0.11 µM | 0.463 µM | 0.0648 µM | > 100 µM | – | –
